Laboratory results: US12545639B2, “3-substituted phenylamidine compounds, preparation and use thereof” (PI INDUSTRIES LTD., priority 2019, dated 2026)

Legend:
[1] = system: Pyricularia oryzae; assay: microbe, parasite or virus in culture; type: cell-based; conditions: 168 h, read-out: control compared to the untreated check (radial growth)
[2] = system: Alternaria solani; assay: Alternaria solani (early blight of tomato/potato) in vitro test, radial growth on potato dextrose agar; type: cell-based; conditions: 168 h, 300 ppm in potato dextrose agar, 25° C., 60% relative humidity, seven days, read-out: control compared to the untreated check (radial growth)
[3] = system: Phakopsora pachyrhizi; assay: Phakopsora pachyrhizi test in soybean, preventive, in vivo on plants; conditions: in Glycine max, read-out: Efficacy (% control), disease severity compared to the untreated check
[4] = system: Rhizoctonia solani; assay: Rhizoctonia solani (rice sheath blight/potato black scurf) in vitro test, radial growth on potato dextrose agar; type: cell-based; conditions: 168 h, 300 ppm in potato dextrose agar, 25° C., 60% relative humidity, seven days, read-out: control compared to the untreated check (radial growth)

Row | SMILES | inhibition of growth at 300 ppm [1] [%] | inhibition of growth at 300 ppm [2] [%] | pest or weed control at 500 ppm [3] [%] | inhibition of growth at 300 ppm [4] [%]
1 | CCN(C)C=Nc1cc(Cl)cc(Nc2ccccc2)c1C [Compound 155, N′-(5-chloro-2-methyl-3-(phenylamino)phenyl)-N-ethyl-N-methylformimidamide] | ≥ 70 | ≥ 70 | ≥ 70 | –
2 | CCN(C)C=Nc1cc(F)cc(Cc2ccc(F)c(C(F)(F)F)c2)c1C [Compound 234, N-ethyl-N′-(5-fluoro-3-(4-fluoro-3-(trifluoromethyl)benzyl)-2-methylphenyl)-N-methylformimidamide] | ≥ 70 | ≥ 70 | ≥ 70 | ≥ 70
3 | CCN(C)C=Nc1cc(OC)cc(Cc2ccc(F)c(Cl)c2)c1C [Compound 282, N′-(3-(3-chloro-4-fluorobenzyl)-5-methoxy-2-methylphenyl)-N-ethyl-N-methylformimidamide] | – | – | ≥ 70 | –
4 | CCN(C)C=Nc1cc(C)cc(Cc2ccc(F)cc2Br)c1Cl [Compound 215, N′-(3-(2-bromo-4-fluorobenzyl)-2-chloro-5-methylphenyl)-N-ethyl-N-methylformimidamide] | – | – | ≥ 70 | –
5 | CCN(C)C=Nc1cc(C)cc(N(C)c2cnccn2)c1Cl [Compound 210, N′-(2-chloro-5-methyl-3-(methyl(pyrazin-2-yl)amino)phenyl)-N-ethyl-N-methylformimidamide] | – | – | ≥ 70 | –
6 | CCN(C)C=Nc1cc(Cl)cc(Cc2ccccc2C#N)c1C [Compound 104, N′-(5-chloro-3-(2-cyanobenzyl)-2-methylphenyl)-N-ethyl-N-methylformimidamide] | ≥ 70 | ≥ 70 | ≥ 70 | ≥ 70
7 | CCN(C)C=Nc1cc(OC)cc(N(C)c2ccccc2OC)c1C [Compound 270, N-ethyl-N′-(5-methoxy-3-((2-methoxyphenyl)(methyl)amino)-2-methylphenyl)-N-methylformimidamide] | – | – | ≥ 70 | –
8 | CCN(C)C=Nc1cc(C)cc(NC(C)Cc2cnccn2)c1Cl (centres unmarked) [Compound 195, N′-(2-chloro-5-methyl-3-((1-(pyrazin-2-yl)propan-2-yl)amino)phenyl)-N-ethyl-N-methylformimidamide] | – | – | ≥ 70 | –
9 | CCc1cccc(N(C)c2cc(F)cc(N=CN(C)CC)c2C)n1 [Compound 239, N-ethyl-N′-(3-((6-ethylpyridin-2-yl)(methyl)amino)-5-fluoro-2-methylphenyl)-N-methylformimidamide] | – | ≥ 70 | ≥ 70 | ≥ 70
10 | CCN(C)C=Nc1cc(F)cc(Nc2cnccn2)c1C [Compound 193, N-ethyl-N′-(5-fluoro-2-methyl-3-(pyrazin-2-ylamino)phenyl)-N-methylformimidamide] | – | – | ≥ 70 | –
11 | CCN(C)C=Nc1cc(F)cc(N(C)c2ncccc2C(F)(F)F)c1C [Compound 153, N-ethyl-N′-(5-fluoro-2-methyl-3-(methyl(3-(trifluoromethyl)pyridin-2-yl)amino)phenyl)-N-methylformimidamide] | – | ≥ 70 | ≥ 70 | –
12 | CCN(C)C=Nc1cc(OC)cc(Cc2cc(F)ccc2C)c1C [Compound 281, N-ethyl-N′-(3-(5-fluoro-2-methylbenzyl)-5-methoxy-2-methylphenyl)-N-methylformimidamide] | – | – | ≥ 70 | –
13 | CCN(C)C=Nc1cc(C)cc(Nc2cc(C)cc(F)c2)c1Cl [Compound 111, N′-(2-chloro-3-((3-fluoro-5-methylphenyl)amino)-5-methylphenyl)-N-ethyl-N-methylformimidamide] | ≥ 70 | – | ≥ 70 | –
14 | CCN(C)C=Nc1cc(C)cc(Cc2cccnc2)c1Cl [Compound 66, N′-(2-chloro-5-methyl-3-(pyridin-3-ylmethyl)phenyl)-N-ethyl-N-methylformimidamide] | ≥ 70 | ≥ 70 | ≥ 70 | –
15 | CCN(C)C=Nc1cc(F)cc(Nc2ncccn2)c1C [Compound 187, N-ethyl-N′-(5-fluoro-2-methyl-3-(pyrimidin-2-ylamino)phenyl)-N-methylformimidamide] | – | – | ≥ 70 | –
16 | CCN(C)C=Nc1cc(Cl)cc(Nc2ccc3ncsc3c2)c1C [Compound 242, N′-(3-(benzo[d]thiazol-6-ylamino)-5-chloro-2-methylphenyl)-N-ethyl-N-methylformimidamide] | ≥ 70 | ≥ 70 | ≥ 70 | ≥ 70
17 | CCN(C)C=Nc1cc(OC)cc(Cc2cccc(C)c2)c1C [Compound 278, N-ethyl-N′-(5-methoxy-2-methyl-3-(3-methylbenzyl)phenyl)-N-methylformimidamide] | – | – | ≥ 70 | –

Row | SMILES | inhibition of growth at 300 ppm [1] [%] | inhibition of growth at 300 ppm [2] [%] | pest or weed control at 500 ppm [3] [%] | inhibition of growth at 300 ppm [4] [%]
18 | CCN(C)C=Nc1cc(C)cc(N(C)c2ccc(F)cc2)c1Cl [Compound 69, N′-(2-chloro-3-((4-fluorophenyl)(methyl)amino)-5-methylphenyl)-N-ethyl-N-methylformimidamide] | ≥ 70 | ≥ 70 | ≥ 70 | ≥ 70
19 | CCN(C)C=Nc1cc(C)cc(N(C)c2ncccn2)c1Cl [Compound 192, N′-(2-chloro-5-methyl-3-(methyl(pyrimidin-2-yl)amino)phenyl)-N-ethyl-N-methylformimidamide] | – | – | ≥ 70 | –
20 | CCN(C)C=Nc1cc(C)cc(Cc2ccc(F)c(C(F)(F)F)c2)c1Cl [Compound 218, N′-(2-chloro-3-(4-fluoro-3-(trifluoromethyl)benzyl)-5-methylphenyl)-N-ethyl-N-methylformimidamide] | ≥ 70 | ≥ 70 | ≥ 70 | ≥ 70
21 | CCN(C)C=Nc1cc(C)cc(N(C)c2ncccc2C(F)(F)F)c1Cl [Compound 157, N′-(2-chloro-5-methyl-3-(methyl(3-(trifluoromethyl)pyridin-2-yl)amino)phenyl)-N-ethyl-N-methylformimidamide] | ≥ 70 | ≥ 70 | ≥ 70 | –
22 | CCN(C)C=Nc1cc(C)cc(Nc2ncccc2C)c1Cl [Compound 86, N′-(2-chloro-5-methyl-3-((3-methylpyridin-2-yl)amino)phenyl)-N-ethyl-N-methylformimidamide] | ≥ 70 | ≥ 70 | ≥ 70 | –
23 | CCN(C)C=Nc1cc(OC)cc(Cc2ccc(Cl)cc2)c1C [Compound 279, N′-(3-(4-chlorobenzyl)-5-methoxy-2-methylphenyl)-N-ethyl-N-methylformimidamide] | – | – | ≥ 70 | –
24 | CCN(C)C=Nc1cc(C)cc(Nc2ccccn2)c1Cl [Compound 85, N′-(2-chloro-5-methyl-3-(pyridin-2-ylamino)phenyl)-N-ethyl-N-methylformimidamide] | – | ≥ 70 | ≥ 70 | –
25 | CCN(C)C=Nc1cc(OC)cc(N(C)c2ccc(F)c(OC)c2)c1C [Compound 284, N-ethyl-N′-(3-((4-fluoro-3-methoxyphenyl)(methyl)amino)-5-methoxy-2-methylphenyl)-N-methylformimidamide] | – | – | ≥ 70 | –
26 | CCN(C)C=Nc1cc(OC)cc(Cc2ccccc2)c1C [Compound 298, N′-(3-benzyl-5-methoxy-2-methylphenyl)-N-ethyl-N-methylformimidamide] | ≥ 70 | ≥ 70 | ≥ 70 | ≥ 70
27 | CCN(C)C=Nc1cc(C)cc(N(C)c2ccc3c(c2)OCCO3)c1Cl [Compound 184, N′-(2-chloro-3-((2,3-dihydrobenzo[b][1,4]dioxin-6-yl)(methyl)amino)-5-methylphenyl)-N-ethyl-N-methylformimidamide] | – | – | ≥ 70 | –
28 | CCN(C)C=Nc1cc(F)cc(Nc2ccccn2)c1C [Compound 95, N-ethyl-N′-(5-fluoro-2-methyl-3-(pyridin-2-ylamino)phenyl)-N-methylformimidamide] | – | – | ≥ 70 | –
29 | CCN(C)C=Nc1cc(Cl)cc(Nc2cnccn2)c1C [Compound 211, N′-(5-chloro-2-methyl-3-(pyrazin-2-ylamino)phenyl)-N-ethyl-N-methylformimidamide] | – | – | ≥ 70 | –
30 | CCN(C)C=Nc1cc(C)cc(Nc2cnccn2)c1Cl [Compound 194, N′-(2-chloro-5-methyl-3-(pyrazin-2-ylamino)phenyl)-N-ethyl-N-methylformimidamide] | – | – | ≥ 70 | –
31 | CCN(C)C=Nc1cc(C)cc(N(C)c2ccc(OC)cc2)c1Cl [Compound 64, N′-(2-chloro-3-((4-methoxyphenyl)(methyl)amino)-5-methylphenyl)-N-ethyl-N-methylformimidamide] | ≥ 70 | ≥ 70 | – | ≥ 70
32 | CCN(C)C=Nc1cc(F)cc(N(C)c2ccccn2)c1C [Compound 109, N-ethyl-N′-(5-fluoro-2-methyl-3-(methyl(pyridin-2-yl)amino)phenyl)-N-methylformimidamide] | – | – | ≥ 70 | –
33 | CCN(C)C=Nc1cc(C)cc(Cc2cccc(C(F)(F)F)c2)c1Cl [Compound 53, N′-(2-chloro-5-methyl-3-(3-(trifluoromethyl)benzyl)phenyl)-N-ethyl-N-methylformimidamide] | – | ≥ 70 | ≥ 70 | –
34 | CCN(C)C=Nc1cc(C)cc(NCc2cnc(C)cn2)c1Cl [Compound 196, N′-(2-chloro-5-methyl-3-(((5-methylpyrazin-2-yl)methyl)amino)phenyl)-N-ethyl-N-methylformimidamide] | – | – | ≥ 70 | –
